Laboratory results published in patent EP4745134A1 (Jiangsu Yahong Meditech Co., Ltd., priority 2023, dated 2025).

Tests used:
PRMT5-MTA = PRMT5-MTA (Homo sapiens, UniProt O14744); assay: Enzymatic inhibitory activity against PRMT5-MTA (AlphaScreen); format: biochemical; details: read-out: IC50
Method: The AlphaScreen method was used to detect the enzymatic inhibitory activity of the compounds against PRMT5-MTA. 1 x Methyltransferase assay buffer IV (signalchem) was prepared as a solution for diluting each component for the enzymatic reaction. PRMT5/[…] protein of a final concentration of 1 nM, […] (sigma) of a final concentration of 1 uM and S-(5'-adenosine)-L-methionine chloride dihydrochloride (sigma) of a final concentration of 2.5 uM were mixed, then incubated for 30 minutes at room temperature, and transferred to an OptiPlate-384 well plate (PerkinElmer) at a volume of 6 uL per well, for which no PRMT5/[…] protein was added to the control wells. The test compound was 3-fold serially diluted into 10 concentrations, starting from a concentration of 1000 nM, and the series of diluted compounds were added to all wells except the control wells in the well plate using Tecan D300e. The well plate was subjected to centrifugation for 1 minute at 1000 rpm in a centrifuge, and then incubated for 15 minutes at 23°C. Histone H4 substrate of a final concentration of 5 nM was added to the well plate at 4 uL per well, centrifuged for 1 minute at 1000 rpm in a centrifuge, then placed in an incubator at 23°C and reacted for 45 minutes. Anti-histone H4 (symmetrical dimethyl R3) antibody (Abcam) was incubated with 50 ug/mL of AlphaScreen Protein A Acceptor beads (PerkinElmer) for 10 minutes at room temperature beforehand, and then added to the well plate at a volume of 10 uL per well. The mixture was reacted for 1 hour at room temperature. 50 Ug/mL of AlphaScreen Streptavidin Donor beads (PerkinElmer) was added at 10 uL per well, and reacted for 1 hour at room temperature. The signal values were detected for the well plate through the Alpha method using an Envision multifunctional microplate-reader, and the IC50 values for inhibition of the compounds on PRMT5/MET50 enzyme activity were calculated in Xlfit 5.0 software. Table 1. IC50 values for inhibition of the compounds on PRMT5+MTA enzyme activity

HCT116 MTAP KO cells = assay: Inhibitory activity against cell proliferation (CellTiter Glo, 6 days), HCT116 MTAP KO; format: cell-based; details: Homo sapiens, HCT-116, 144 h, HCT116 MTAP KO cells, 6 days, CellTiter Glo; read-out: HCT116 MTAP KO IC50
Method: HCT116-WT (ATCC, CCL-247) and HCT116 MTAP KO (Nanjing Cobioer, CBP75002) cells were seeded into white low-transparency sterile 96-well cell culture plates at a density of 250 cells per well respectively, and the culture medium was McCoy's 5A Medium+10% FBS. The plates were placed under the condition of 37°C and 5% CO2 to be cultured overnight. The cells were treated with 4-fold serially diluted compounds of 8 concentration points starting at an initial concentration of 10000 nM, and the last two columns were used as control wells to which only DMSO was added. The drug-treated cells were further cultured for 6 days. On day 7, CellTiter Glo® reagent was added at 50 uL per well, and after reaction under shaking for 10 minutes at room temperature, the chemiluminescence signals were detected for the well plates through the chemiluminescence detection method using a BIOTEK H1 multifunctional microplate-reader. The IC50 values for inhibition of the compounds on cell viability were calculated in X1fit 5.0 software. Table 2. IC50 values for inhibition of the compounds on HCT116 MTAP KO/WT cell growth

Sequence of PRMT5-MTA (O14744 whole entry): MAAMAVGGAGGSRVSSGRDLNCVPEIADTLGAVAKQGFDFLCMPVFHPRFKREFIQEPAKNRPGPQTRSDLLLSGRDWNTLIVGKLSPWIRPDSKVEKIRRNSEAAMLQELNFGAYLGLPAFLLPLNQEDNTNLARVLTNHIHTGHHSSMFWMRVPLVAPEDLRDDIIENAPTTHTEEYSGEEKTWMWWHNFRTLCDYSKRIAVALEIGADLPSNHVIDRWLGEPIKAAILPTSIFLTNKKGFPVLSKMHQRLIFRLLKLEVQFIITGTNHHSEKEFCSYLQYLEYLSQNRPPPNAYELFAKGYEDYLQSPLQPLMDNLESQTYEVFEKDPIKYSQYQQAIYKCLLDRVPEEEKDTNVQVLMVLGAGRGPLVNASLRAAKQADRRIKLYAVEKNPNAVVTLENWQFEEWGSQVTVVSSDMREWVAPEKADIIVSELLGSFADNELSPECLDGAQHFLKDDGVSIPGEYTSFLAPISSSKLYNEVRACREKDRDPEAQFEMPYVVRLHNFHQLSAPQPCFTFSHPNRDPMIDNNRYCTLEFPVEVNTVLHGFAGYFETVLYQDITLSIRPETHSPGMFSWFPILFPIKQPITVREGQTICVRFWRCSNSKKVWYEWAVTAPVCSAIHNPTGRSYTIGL
Sequence of PRMT5-MTA (Q9BQA1 whole entry partner): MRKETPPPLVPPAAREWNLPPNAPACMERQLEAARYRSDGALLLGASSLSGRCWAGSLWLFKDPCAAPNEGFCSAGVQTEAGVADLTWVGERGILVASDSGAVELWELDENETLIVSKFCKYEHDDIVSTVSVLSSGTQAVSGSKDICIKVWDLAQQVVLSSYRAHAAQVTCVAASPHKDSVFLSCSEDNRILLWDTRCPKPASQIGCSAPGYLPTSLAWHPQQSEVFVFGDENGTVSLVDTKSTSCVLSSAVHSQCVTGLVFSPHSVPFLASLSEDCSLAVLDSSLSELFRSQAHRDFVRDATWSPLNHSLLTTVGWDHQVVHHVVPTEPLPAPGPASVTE

Row | Structure (SMILES) | IC50 (PRMT5-MTA) | IC50 (HCT116 MTAP KO cells)
1 | Cc1cc(N)nc2ccc(C(=O)N(Cc3ccc(C(F)(F)F)cn3)N(C)c3ncccn3)cc12 [Compound 30, 2-amino-N',4-dimethyl-N'-(pyrimidin-2-y 1)-N-((5-(trifluoromethyl)pyridin-2-yl)methyl)quinoline-6-carbohydrazide] | 1.9 nM | 
2 | Cc1cc2nc(N)c3cnn(C)c3c2cc1C(=O)N(C)N1CCc2ncccc21 [Compound 114, 4-amino-N-(2,3-dihydro-1H-pyrrolo[3,2-b]pyridin-1-yl)-N,1,7-trimethyl-1H-pyraz olo[4,3-c]quinoline-8-carboxamide] | 4 nM | 
3 | Cc1cc2cc(C(=O)N(Cc3ccc(-c4ccc(N(C)C5CC5)nc4)cn3)N(C)c3ncccn3)ccc2nc1N [Compound 247, 2-amino-N-((6'-(cyclopropyl(methyl)amino)-[3,3'-bipyridine]-6-yl)methyl)-N',3-di methyl-N'-(pyrimidin-2-yl)quinoline-6-carbohydrazide] | 7.7 nM | 
4 | Cc1ncsc1-c1ccc(CN(C(=O)c2ccc3nc(N)c(CF)cc3c2)N(c2ncccn2)C2CC2)nc1 [Compound 324, 2-amino-N'-cyclopropyl-3-(fluoromethyl) -N-((5-(4-methylthiazol-5-yl)pyridin-2-yl)methyl)-N'-(pyrimidin-2-yl)quinoline-6-carbohydrazide] | 4.4 nM | 
5 | COCCN(c1ncccn1)N(Cc1ccc(C(F)(F)F)cn1)C(=O)c1ccc2nc(N)c(C)cc2c1 [Example 4, 2-amino-N'-(2-methoxyethyl)-3-methyl-N'-(pyrimidin-2-yl)-N-((5-(trifluoromethyl)pyridin-2-yl)methyl)quinoline-6-carbohydrazide] | 2 nM | 
6 | Cc1cc2cc(C(=O)N(Cc3ccccn3)N(C)c3ncccn3)ccc2nc1N [Example 9, 2-amino-N',3-dimethyl-N-(pyridin-2-ylmethyl)-N'-(pyrimidin-2-yl)quinoline-6-carbohydrazide] | 3.2 nM | 
7 | CN(c1ncccn1)N(Cc1ccc(C(F)(F)F)cn1)C(=O)c1ccc2nc(N)c3cnn(C)c3c2c1 [Example 11, 4-amino-N',1-dimethyl-N'-(pyrimidin-2-y 1)-N-((5-(trifluoromethyl)pyridin-2-yl)methyl)-1H-pyrazolo[4,3-c]quinoline-8-carb ohydrazide] | 1 nM | 
8 | CN(c1ncccn1)N(Cc1ccc(C(F)(F)F)cn1)C(=O)c1ccc2nc(N)c3c(c2c1)COC3 [Example 12, 4-amino-N'-methyl-N'-(pyrimidin-2-yl)-N-((5-(trifluoromethyl)pyridin-2-yl)methyl)-1,3-dihydrofuro[3,4-c]quinoline-8-car bohydrazide] | 7.8 nM | 
9 | Cc1cc2nc(N)c3cnn(C)c3c2cc1C(=O)N(Cc1ccc(C(F)(F)F)cn1)N(C)c1ncccn1 [Example 13, 4-amino-N',1,7-trimethyl-N'-(pyrimidin-2-yl)-N-((5-(trifluoromethyl)pyridin-2-yl)methyl)-1H-pyrazolo[4,3-c]quinoline-8-c arbohydrazide] | 4 nM | 
10 | CN(c1ncccn1)N(Cc1ccc(C(F)(F)F)cn1)C(=O)c1cc2c(cc1F)nc(N)c1cnn(C)c12 [Example 14, 4-amino-7-fluoro-N',1-dimethyl-N'-(pyrimidin-2-yl)-N-((5-(trifluoromethyl)pyridin-2-yl)methyl)-1H-pyrazolo[4,3-c]quinoline-8-carbohydrazide] | 2 nM | 
11 | CN(c1ncccn1)N(Cc1ccc(C(F)(F)F)cn1)C(=O)c1cc2c(cc1Cl)nc(N)c1cnn(C)c12 [Example 17, 4-amino-7-chloro-N',1-dimethyl-N'-(pyrimidin-2-yl)-N-((5-(trifluoromethyl)pyridin-2-yl)methyl)-1H-pyrazolo[4,3-c]quinoline-8-carbohydrazide] | 7 nM | 
12 | Cc1cc2cc(C(=O)N(Cc3ccc(C(F)(F)F)cn3)n3cnc4cccnc43)ccc2nc1N [Example 27, 2-amino-N-(3H-imidazo[4,5-b]pyridin-3-yl)-3-methyl-N-((5-(trifluoromethyl)pyridin-2-yl)methyl)quinoline-6-carboxamide] | 4 nM | 
13 | CN(c1ncccn1)N(Cc1ccc(C(F)(F)F)cn1)C(=O)c1ccc2nc(N)cc(C3CC3)c2c1 [Example 29, 2-amino-4-cyclopropyl-N'-methyl-N'-(pyrimidin-2-yl)-N-((5-(trifluoromethyl)pyridin-2-yl)methyl)quinoline-6-carbohydrazide] | 1.6 nM | 
14 | CN(C(=O)c1cc2c(cc1F)nc(N)c1cnn(C)c12)N1CCc2cc(C(F)(F)F)cnc21 [Example 31, 4-amino-7-fluoro-N,1-dimethyl-N-(5-(trifluoromethyl)-2,3-dihydro-1H-pyrrolo[2,3-b]pyridin-1-yl)-1H-pyrazolo[4,3-c]quinoline-8-carboxamide] | 3.5 nM | 
15 | CN(c1ncccn1)N(Cc1ccc(C(F)(F)F)cn1)C(=O)c1ccc2c(c1)nc(N)n2C [Example 36, 2-amino-N',1-dimethyl-N'-(pyrimidin-2-yl)-N-((5-(trifluoromethyl)pyridin-2-yl)methyl)-1H-benzo[d]imidazole-5-carbohydrazide] |  | > 10000 nM
16 | CN(C(=O)c1cc2c(cc1F)nc(N)c1cnn(C)c12)N(C)c1ncc(C(F)(F)F)cc1F [Example 37, 4-amino-7-fluoro-N'-(3-fluoro-5-(trifluor omethyl)pyridin-2-yl)-N,N',1-trimethyl-1 H-pyrazolo[4,3-c]quinoline-8-carbohydrazide] | 3.5 nM | 
17 | Cc1cc2cc(C(=O)N(Cc3ncccc3C(F)(F)F)N(C)c3ncccn3)ccc2nc1N [Example 41, 2-amino-N',3-dimethyl-N'-(pyrimidin-2-yl)-N-((3-(trifluoromethyl)pyridin-2-yl)methyl)quinoline-6-carbohydrazide] | 3.9 nM | 
18 | Cc1cc2cc(C(=O)N(Cc3ccc(C(F)(F)F)cn3)N(C)c3cc(C(F)(F)F)ccn3)ccc2nc1N [Example 43, 2-amino-N',3-dimethyl-N'-(4-(trifluoromethyl)pyridin-2-yl)-N-((5-(trifluoromethyl)pyridin-2-yl)methyl)quinoline-6-carbohydrazide] | 3.8 nM | 
19 | Cc1cc2cc(C(=O)N(Cc3ccc(C(F)(F)F)cn3)N(C)c3c(F)cccc3C(F)(F)F)ccc2nc1N [Example 44, 2-amino-N'-(2-fluoro-6-(trifluoromethyl)phenyl)-N',3-dimethyl-N-((5-(trifluoromethyl)pyridin-2-yl)methyl)quinoline-6-car bohydrazide] | 1.9 nM | 
20 | Cc1cc2cc(C(=O)N(Cc3ccc(C(F)(F)F)cn3)N(C)c3nccc4ccccc34)ccc2nc1N [Example 45, 2-amino-N'-(isoquinol-1-yl)-N',3-dimethyl-N-((5-(trifluoromethyl)pyridin-2-yl)methyl)quinoline-6-carbohydrazide] | 3.1 nM | 
21 | CN(c1ccc(C(F)(F)F)cn1)N(CC(F)(F)F)C(=O)c1ccc2nc(N)c3c(c2c1)COC3 [Example 54, 4-amino-N'-methyl-N-(2,2,2-trifluoroethyl)-N'-(5-(trifluoromethyl)pyridin-2-yl)-1,3-dihydrofuro[3,4-c]quinoline-8-carbohydrazide] | 15.8 nM | 
22 | CN(C(=O)c1ccc2nc(N)c3c(c2c1)COC3)N(C)c1ccc(C(F)(F)F)cn1 [Example 55, 4-amino-N,N'-dimethyl-N'-(5-(trifluoromethyl)pyridin-2-yl)-1,3-dihydrofuro[3,4-c]quinoline-8-carbohydrazide] | 4.6 nM | 
23 | Cc1cc2cc(C(=O)N(Cc3ccc(F)cn3)N(C)c3ncccn3)ccc2nc1N [Example 71, 2-amino-N-((5-fluoropyridin-2-yl)methyl)-N',3-dimethyl-N'-(pyrimidin-2-yl)quin oline-6-carbohydrazide] | 3.3 nM | 
24 | Cc1cc2cc(C(=O)N(Cc3ccc(C(F)(F)F)cn3)N(C)c3ncc(C(F)(F)F)cn3)ccc2nc1N [Example 77, 2-amino-N',3-dimethyl-N-((5-(trifluoromethyl)pyridin-2-yl)methyl)-N'-(5-(trifluor omethyl)pyrimidin-2-yl)quinoline-6-carbohydrazide] | 1.1 nM | 
25 | Cc1cc2cc(C(=O)N(Cc3ccc(C(F)(F)F)cn3)N(C)c3cccnn3)ccc2nc1N [Example 79, 2-amino-N',3-dimethyl-N'-(pyridazin-3-yl)-N-((5-(trifluoromethyl)pyridin-2-yl)methyl)quinoline-6-carbohydrazide] | 9.7 nM | 
